{"source": "paper PMC9605374", "about": "(Marine Drugs, 2022)", "key": {"[1]": {"test_system": "mouse lymphoma cells L5178Y", "parameters": "method as in doi:10.1016/j.phytol.2014.12.010", "details": "cited from earlier work"}, "22Rv1 cells [2]": {"test_system": "22Rv1 cells", "assay": "Trypan blue exclusion assay", "assay_type": "cell-based", "details": "Homo sapiens, 22Rv1, trypan blue exclusion", "protocol": "Figure 2 Trypan blue exclusion assay. 22Rv1 cells were treated for 48 h (A) or 168 h (B) with the indicated concentrations of NB. The cells were harvested, stained, and counted with an automatic Vi-CELL cell counter device. Number of replicates n = 3.\nThe trypan blue exclusion assay was used to monitor the effect of the drugs on cell viability regarding cellular membrane integrity and was performed as described before. In brief, cells (2 × 10^5 cells/well) were seeded in 6-well plates (1 mL/well) and incubated overnight. Next, the media was substituted with fresh media (1 mL/well) containing drugs at indicated concentrations. Cells were treated for 48 h, harvested by trypsination, and stained with trypan blue. The automatic Beckman Coulter Vi-CELL (Beckman Coulter, Krefeld, Germany) was used to count trypan blue-positive and -negative cells. Trypan blue-negative cells were postulated to have an intact cellular membrane (i.e., alive cells), whereas trypan blue-positive cells were assumed to have damaged cellular membrane (i.e., dead cells)."}, "22Rv1 cells [3]": {"test_system": "22Rv1 cells", "assay": "Cell cycle progression and DNA fragmentation analysis (PI, flow cytometry)", "assay_type": "cell-based, human", "details": "22Rv1, 48 h", "protocol": "Figure 4 Investigation of the proapoptotic activity of NB. Flow cytometry analysis of 22Rv1 cells after 48 h of treatment. (A) Cell cycle and DNA fragmentation analysis. Treated cells were stained with PI and analyzed using a flow cytometry technique. Sub-G1 population was assumed to be apoptotic cells containing fragmentated DNA. (B) Analysis of phosphatidylserine externalization. Treated cells were double-stained with annexin-V-FITC and PI and analyzed using the flow cytometry technique. Cells of the low left quadrant (annexin-V-FITC^−/PI^−) were considered as alive cells. The Cell Quest Pro v.5.2.1 software (BD Bioscience, San Jose, CA, USA) was used to analyze and quantify the FACS data. Cells treated for 48 h with 10 µM of anisomycin were used as a positive control. Number of replicates n = 3. Statistical significance: * p < 0.05 (ANOVA). […]\nDNA fragmentation and cell cycle progression of treated and untreated cells (negative control) were analyzed by flow cytometry as previously described. […]"}, "22Rv1 cells [4]": {"test_system": "22Rv1 cells", "assay": "Drug combination study NB with MAPK inhibitors, MTT assay, SynergyFinder 2.0", "assay_type": "cell-based", "details": "Homo sapiens, 22Rv1, 24 h, 24 h; for inhibition at 0.8 µM: 22Rv1, NB alone 0.8 μM; for inhibition at 3.1 µM: 22Rv1, NB alone 3.1 μM; for inhibition at 12.5 µM: 22Rv1, NB alone 12.5 μM; for inhibition at 50 µM: 22Rv1, NB alone 50 μM", "source_text": "Whether activation of MAPKs contribute to cell death or survival depends not only on the cellular context, but also on the nature of the activating stimuli. Thus, to reveal the function of JNK1/2 and p38 in the anticancer effect of NB, we co-treated 22Rv1 cells with NB and specific inhibitors of the above-mentioned MAPKs. […] As MEK1/2 kinase directly and exclusively activates ERK1/2, PD98039 inhibitor is often used as an ERK1/2 inhibitor [38]. Thus, an inactivation of MEK1/2 leads solely to an inhibition of ERK1/2 [38]. Since the inhibitors themselves exert cytotoxic effects in cancer cells, we used a Chou–Talalay method to distinguish between synergism, additive effects, or antagonistic effects of the particular MAPK inhibitor on the compound bioactivity. For this, using an MTT assay, we determined a cytotoxic effect on various concentrations of NB, MAPK inhibitors, and their combinations in 22Rv1 cells. The viability data were further analyzed using the SynergyFinder v. 2.0 software (Network Pharmacology for Precision Medicine in the Research Program of System Oncology, Faculty of Medicine at University of Helsinki, Helsinki, Finland) and a Zero interaction potency (ZIP) reference model (Figure 7).\nThe experiments were carried out as previously reported. […] 22Rv1 cells (6 × 10^3 cells/well in 96-well plates) were simultaneously treated with NB and docetaxel; or pretreated with MAPK inhibitors for 1 h following treatment with NB in the total media volume of 100 µL/well. Following 24 h of incubation, the viability of the cells treated with individual drugs as well as their combinations was determined using MTT assay. […] Red areas (positive δ-values) and green areas (negative δ-values) indicate synergism and antagonism, respectively."}}, "data": [{"smiles": "COc1ccc(C2SSC34CC5(O)C(Cl)C=CC(O)C5ON3C(=O)C2N(C)C4=O)c(O)c1OC", "note": "(centres unmarked) [NB, N-methylpretrichodermamide B]", "values": [{"measurement": "IC50", "setting": "[1]", "value": 2000, "unit": "nM"}, {"measurement": "IC50", "setting": "22Rv1 cells [2]; 48 h", "value": "129 ± 62", "unit": "nM"}, {"measurement": "IC50", "setting": "22Rv1 cells [2]; 168 h", "value": "276 ± 58", "unit": "nM"}, {"measurement": "DNA fragmentation (sub-G1 population)", "setting": "22Rv1 cells [3]", "value": "caused DNA fragmentation"}, {"measurement": "cell cycle arrest", "setting": "22Rv1 cells [3]", "value": "G1-phase arrest"}, {"measurement": "inhibition at 0.8 µM", "setting": "22Rv1 cells [4]; matrix with PD98059 (0 μM)", "value": 28.5, "unit": "%"}, {"measurement": "inhibition at 0.8 µM", "setting": "22Rv1 cells [4]; matrix with SB203580 (0 μM)", "value": 29.1, "unit": "%"}, {"measurement": "inhibition at 0.8 µM", "setting": "22Rv1 cells [4]; matrix with SP600125 (0 μM)", "value": 17.3, "unit": "%"}, {"measurement": "inhibition at 3.1 µM", "setting": "22Rv1 cells [4]; matrix with PD98059 (0 μM)", "value": 35.2, "unit": "%"}, {"measurement": "inhibition at 3.1 µM", "setting": "22Rv1 cells [4]; matrix with SB203580 (0 μM)", "value": 33.3, "unit": "%"}, {"measurement": "inhibition at 3.1 µM", "setting": "22Rv1 cells [4]; matrix with SP600125 (0 μM)", "value": 25.2, "unit": "%"}, {"measurement": "inhibition at 12.5 µM", "setting": "22Rv1 cells [4]; matrix with PD98059 (0 μM)", "value": 43.4, "unit": "%"}, {"measurement": "inhibition at 12.5 µM", "setting": "22Rv1 cells [4]; matrix with SB203580 (0 μM)", "value": 48.2, "unit": "%"}, {"measurement": "inhibition at 12.5 µM", "setting": "22Rv1 cells [4]; matrix with SP600125 (0 μM)", "value": 40.5, "unit": "%"}, {"measurement": "inhibition at 50 µM", "setting": "22Rv1 cells [4]; matrix with PD98059 (0 μM)", "value": 51.9, "unit": "%"}, {"measurement": "inhibition at 50 µM", "setting": "22Rv1 cells [4]; matrix with SB203580 (0 μM)", "value": 54.9, "unit": "%"}, {"measurement": "inhibition at 50 µM", "setting": "22Rv1 cells [4]; matrix with SP600125 (0 μM)", "value": 41, "unit": "%"}]}]}
